One series deals with HT-1080.hFAP tumor. Briefly: Biodistribution study in HT-1080.hFAP tumor bearing mice. The class given is in vivo. As to conditions: indium-111 labelled. The source says:
Six-week-old male Balb/c nu/nu-specific and opportunistic pathogen-tree (SOPF) mice were housed in individually ventilated cages, with 4 mice per cage. Upon arrival, mice were acclimated for 1 week, with access to food and water ad libitum. Mice were subcutaneously inoculated on the right shoulder with U-87 or HT-1080.hFAP cells (1 × 10^6 cells). Xenografts were allowed to grow until they reached an appropriate size at the start of the studies. All animal experiments were approved by the Animal Welfare Committee of the Erasmus MC and were conducted in agreement with institutional guidelines (license number: AVD101002017867).
Biodistribution studies were performed to determine tumor and organ uptake of the radiolabeled eFAP compounds. Animals (n = 4 for each time point and each compound) were injected intravenously with an average of 100 kBq/0.5 nmol at t=0. At 3 selected time points (1, 4 and 24 h) p.i. blood was collected via cardiac puncture under isoflurane/O2 anesthesia, after which the mice were sacrificed. The tumor and organs of interest (prostate, pancreas, spleen, gall bladder, liver, stomach, small intestine, coecum, colon, adrenals, kidney, lung, heart, salivary glands, muscle, bone, brain were excised, washed in PBS and blotted dry. The blood, tumor, and relevant organs were weighed and measured in a γ-counter. To determine the total injected radioactivity per animal, calibration curve with indium-111 and lutetium-177 were determined. The percentage of injected dose per gram (% ID/g) was determined for each tissue sample and corrected for both the injected volume and % ID present at the injection site (the tail).
Comparison of the biodistribution in selected organs of [^111In]In-FAPI-46 and [^111In]In-eFAP-6 in HT-1080.hFAP tumor bearing mice are given in Figure 8.

In a further series the target is T1, murine FAP (Mus musculus, UniProt P97321).
T1 sequence (P97321 1-761): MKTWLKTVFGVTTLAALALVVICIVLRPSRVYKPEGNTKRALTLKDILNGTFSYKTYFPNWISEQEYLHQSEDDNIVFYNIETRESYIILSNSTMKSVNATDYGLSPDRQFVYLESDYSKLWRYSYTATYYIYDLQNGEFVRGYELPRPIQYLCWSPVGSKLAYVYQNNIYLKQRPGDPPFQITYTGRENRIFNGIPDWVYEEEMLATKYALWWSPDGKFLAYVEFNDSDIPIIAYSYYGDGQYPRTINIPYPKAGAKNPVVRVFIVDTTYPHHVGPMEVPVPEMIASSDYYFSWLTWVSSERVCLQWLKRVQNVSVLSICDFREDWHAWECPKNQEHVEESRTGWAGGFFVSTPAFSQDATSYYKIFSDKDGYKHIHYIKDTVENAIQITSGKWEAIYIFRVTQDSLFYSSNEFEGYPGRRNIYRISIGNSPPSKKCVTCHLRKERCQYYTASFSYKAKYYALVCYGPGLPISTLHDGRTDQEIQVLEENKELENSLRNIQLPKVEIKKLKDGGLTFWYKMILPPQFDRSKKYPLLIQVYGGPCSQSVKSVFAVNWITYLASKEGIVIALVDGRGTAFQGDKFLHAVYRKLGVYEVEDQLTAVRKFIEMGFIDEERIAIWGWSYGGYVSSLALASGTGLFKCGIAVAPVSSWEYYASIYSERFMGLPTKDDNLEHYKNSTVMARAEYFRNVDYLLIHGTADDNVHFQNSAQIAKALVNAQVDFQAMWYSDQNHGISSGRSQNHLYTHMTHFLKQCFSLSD
Briefly: In vitro inhibition assay on mouse FAP (Z-GP-AMC substrate). As to conditions: enzymatic assay; 20 µM Z-GP-AMC, 20 nM FAP; unit inferred. The format is biochemical. The protocol:
Enzymatic activity of human FAP (hFAP) and mouse FAP (mFAP) on the Z-GP-AMC substrate was measured at room temperature on a Hidex microplate reader by monitoring the fluorescence at an excitation wavelength of 360 nm and an emission wavelength of 465 nm. The reaction mixture contained 20 µM substrate, 20 nM FAP, assay buffer (50 mM Tris, 100 mM NaCl, 1 mM EDTA, pH 7.4) and tested compound (serial dilution from 10^-6 to 10^-12) in a total volume of 50 µL.

The next series concerns the target T2, FAP (Homo sapiens, UniProt Q12884).
T2 sequence (Q12884 1-760): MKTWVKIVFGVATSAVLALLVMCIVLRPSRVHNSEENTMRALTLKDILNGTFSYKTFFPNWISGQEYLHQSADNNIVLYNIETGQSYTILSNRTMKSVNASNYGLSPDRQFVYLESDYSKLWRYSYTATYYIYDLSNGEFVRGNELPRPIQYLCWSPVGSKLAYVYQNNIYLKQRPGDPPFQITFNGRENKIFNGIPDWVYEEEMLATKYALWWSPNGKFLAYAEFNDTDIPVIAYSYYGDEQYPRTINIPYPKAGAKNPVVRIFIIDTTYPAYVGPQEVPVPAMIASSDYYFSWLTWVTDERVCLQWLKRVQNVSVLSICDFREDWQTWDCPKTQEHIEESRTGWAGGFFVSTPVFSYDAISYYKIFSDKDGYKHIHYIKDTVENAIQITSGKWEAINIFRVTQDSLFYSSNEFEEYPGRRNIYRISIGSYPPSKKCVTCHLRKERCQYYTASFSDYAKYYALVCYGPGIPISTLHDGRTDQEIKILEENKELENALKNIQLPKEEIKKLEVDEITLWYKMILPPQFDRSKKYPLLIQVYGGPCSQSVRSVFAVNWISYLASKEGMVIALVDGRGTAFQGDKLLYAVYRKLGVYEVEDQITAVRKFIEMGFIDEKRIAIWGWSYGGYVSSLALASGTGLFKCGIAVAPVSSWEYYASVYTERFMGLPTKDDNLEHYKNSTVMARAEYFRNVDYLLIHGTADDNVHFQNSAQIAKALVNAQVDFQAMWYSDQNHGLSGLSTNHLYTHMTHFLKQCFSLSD
The series can be described thus: Competitive binding assay against [111In]In-FAPI-46 in HT-1080.hFAP cells. As to conditions: competition with [111In]In-FAPI-46 in HT-1080.hFAP cells, 37 °C, 1 h; unit inferred. Set-up: expressed in transfected cells; host or cells: HT-1080.hFAP cells. The protocol: The U-87 MG glioblastoma was cultured at 37 °C and 5% CO2 in Dulbecco's Modified Eagle Medium (DMEM) supplemented with 10 % (v/v) fetal calf serum. HT-1080.hFAP cells were kept in culture in DMEM medium supplemented with fetal bovine serum (10%, FBS) and antibiotic antimycotic (1%, AA) at 37 °C and 5% CO2. For passaging, cells were detached using Trypsin-EDTA 0.05% when reaching 90% confluence and re-seeded at a dilution of 1:4.
Competition binding experiments were conducted by incubation of the [^111In]In-FAPI-46 radioligand with increasing concentrations of eFAP compound in HT-1080.hFAP cells at 37 °C for 1 h. Cells were then washed three times with binding buffer and lysed. The cell-associated radioactivity was measured in a γ-counter. The IC50 values were calculated by fitting the data by non-linear regression using GraphPad Prism.

Setting [1] is: intravenous, HT-1080.hFAP tumor bearing mice.

Usually IC50 stands for the concentration needed to halve the response being measured. On to `N#C[C@@H]1CC(F)(F)CN1C(=O)CNC(=O)c1ccnc2c(OCCCNC(=O)CN3CCN(CC(=O)O)CCN(CC(=O)O)CCN(CC(=O)O)CC3)cccc12` [eFAP-6, (S)-2,2',2"-(10-(2-((3-((4-((2-(2-Cyano-4,4-difluoropyrrolidin-1-yl)-2-oxoethyl)carbamoyl)quinolin-8-yl)oxy)propyl)amino)-2-oxoethyl)-1,4,7,10-tetraazacyclododecane-1,4,7-triyl)triacetic acid], for which, in the series on HT-1080.hFAP tumor (compared with the clinical reference), the tumor targeting performance result was “comparable with that of FAPI-46”. In addition, in the series with HT-1080.hFAP tumor (setting [1]), the “background uptake in healthy organs” value is “low background uptake in healthy organs”; the tumor uptake result was “high and rapid tumor uptake”. Moreover, the “clearance from the body” value in the series with HT-1080.hFAP tumor (intravenous, mice) is “rapid clearance from the body”. The same molecule registered an IC50 against murine FAP of 3.1 ± 2.4 nM. This molecule came in with an IC50 on FAP of 0.66 nM.

(Values after patent publication EP4342890A1, “PLATFORM AND SCAFFOLD FOR FAP TARGETING AGENTS” (Erasmus University Rotterdam Medical Center, priority 2022, dated 2024).)
